“And” between values parts separate entries of the source, which are not always exact repeats. Equal entries are not always repeated. After the bases stand the sugars from the 5' end (letter, count) and the backbone: PS all phosphorothioate, else s phosphorothioate and o phosphodiester by linkage. Methylation of C is not given here. e = 2'-O-(2-methoxyethyl) (MOE); k = constrained ethyl (cEt); d = 2'-deoxy (DNA); m = 2'-O-methyl

The target in this data set is HSD17B13. Particulars: ASO, HepaRG.

CACAGAACCAATATGC (sugars k3 d10 k3, PS) displayed a target mRNA inhibition (1 µM) of 54%.
In turn, “CACATATGTGAAGAGC (sugars k3 d9 k3 e1, PS)” registered a target mRNA inhibition (0.02 µM) of 6%; a target mRNA inhibition (0.078 µM) of 9%; a target mRNA inhibition (0.313 µM) of 39%; a target mRNA inhibition (1 µM) of 74%; a target mRNA inhibition (1.25 µM) of 57%; a target mRNA inhibition (5 µM) of 78%.
As to “CACAUATGTGAAGAGC (sugars k3 d1 m1 d8 k3, PS)”, for the setting “1 µM”, the target mRNA inhibition came to 65%.
Same read-out and setting: then CACCACGATTGTTACA (sugars k3 d10 k3, PS), with 36%; and CACCGCGCTTATTAAT (sugars k3 d10 k3, PS), with 7%.
“CACCGTTTTGGGCTAA (sugars k3 d1 m1 d8 k3, PS)”: the target mRNA inhibition turned out to be 12% (0.02 µM); 32% (0.078 µM); 54% (0.313 µM); 82% (1 µM); 71% (1.25 µM); 84% (5 µM).
On to “CACCGTTTTGGGCTAA (sugars k3 d9 k3 e1, PS)”, for which, where the note is “1 µM”, the target mRNA inhibition turned out to be 71%.
Take CACCGTTTTGGGCTAA (sugars k3 d10 k3, PS): the target mRNA inhibition reads like this: (0.02 µM) 13%; (0.078 µM) 23%; (0.313 µM) 53%; (1 µM) 85%; (1.25 µM) 83%; (5 µM) 94%.
Regarding CACTAATTTAGTCAAC (sugars k3 d10 k3, PS), the target mRNA inhibition (1 µM) is 7%.
CACTGATACATACCAC (sugars k3 d10 k3, PS) returned a target mRNA inhibition (1 µM) of 64%.
In the case of CACTTTGGTATTGTTG (sugars k3 d10 k3, PS), for the setting “1 µM”, the target mRNA inhibition is 53%.
The same measure, in the same setting: with CACTTTTGGTGGACTT (sugars k3 d10 k3, PS) the figure was 21%; with CAGAAGTTTTTAAGAG (sugars k3 d10 k3, PS), 30%; with CAGAGACATGAGGTTT (sugars k3 d10 k3, PS), 61%.
Turning to CAGAGTTATTGTAGGG (sugars k3 d10 k3, PS), the target mRNA inhibition runs as follows: (0.02 µM) 16%; (0.078 µM) 24%; (0.313 µM) 51%; (1 µM) 83%; (1.25 µM) 74%; (5 µM) 93%.
“CAGATTGGAATGCTAC (sugars k3 d9 k3 e1, PS)”: the target mRNA inhibition (1 µM) came to 61%.
Take CAGATTGGAATGCTAC (sugars k3 d10 k3, PS): the target mRNA inhibition amounted to 7% (0.02 µM); 12% (0.078 µM); 36% (0.313 µM); 74% (1 µM); 73% (1.25 µM); 94% (5 µM).
“CAGAUTATTATGTGAT (sugars k3 d1 m1 d8 k3, PS)”: the target mRNA inhibition (1 µM) is 32%.
The same measure, in the same setting: with CAGCATCAAGACATTC (sugars k3 d10 k3, PS) the figure was 72% and 70%.
The same measure, in the same setting: with “CAGCATCAAGACATTC (sugars kkdddddddddkekek, PS)” the figure was 62%; with CAGCATTGTAATCTTG (sugars k3 d10 k3, PS), 43%.
As for CAGCCTTAGAGTGAAT (sugars k3 d10 k3, PS), the target mRNA inhibition amounted to 6% (0.02 µM); 23% (0.078 µM); 36% (0.313 µM); 82% (1 µM); 73% (1.25 µM); 83% (5 µM).
As for “CAGGGTGGTAACGGTG (sugars k3 d9 k3 e1, PS)”, the target mRNA inhibition (1 µM) is 39%.
The same measure, in the same setting: then “CAGGGTGGTAACGGTG (sugars kkdddddddddkekek, PS)”, with 49%.
Same read-out and setting: then “CAGGTTGAGATAAAGC (sugars kkdddddddddkekek, PS)”, with 53%; and “CAGTCTTAAACCTTCC (sugars k3 d1 m1 d8 k3, PS)”, with 59%.
In the case of “CAGTCTTAAACCTTCC (sugars k3 d9 k3 e1, PS)”, the target mRNA inhibition is 0% (0.02 µM); 0% (0.078 µM); 47% (0.313 µM); 74% and 50% (1 µM); 43% (1.25 µM); 79% (5 µM).
On to CAGTTTTCCTCATGAT (sugars k3 d10 k3, PS), for which, where the note is “1 µM”, the target mRNA inhibition worked out at 65%.
With “CATAACTTCATAGTGG (sugars k3 d1 m1 d8 k3, PS)”, the target mRNA inhibition (1 µM) was found to be 38%.
Turning to CATAAGAGCCAAACTG (sugars k3 d10 k3, PS), the target mRNA inhibition (1 µM) turned out to be 27%.
On the same count and under the same terms, with “CATAATAATAGCTCTA (sugars kkdddddddddkekek, PS)” the figure was 13%; with CATAATCTTGTGCTTG (sugars k3 d10 k3, PS), 37%; with CATACCACATACCCAT (sugars k3 d10 k3, PS), 0%.
Same read-out and setting: with CATAGAACTAGAACTC (sugars k3 d10 k3, PS) the figure was 19%; with CATAGTTCAAATTGGA (sugars k3 d10 k3, PS), 39%; with CATAGTTTATATGGAT (sugars k3 d10 k3, PS), 56%.
On to CATATCAATGCCTTAG (sugars k3 d10 k3, PS), for which the target mRNA inhibition (1 µM) was found to be 29%.
The same measure, in the same setting: with CATATCTTACTCTGTG (sugars k3 d10 k3, PS) the figure was 47%; with “CATATGTGAAGAGCTG (sugars kkdddddddddkekek, PS)”, 35%; with CATCAAGCCCTTTTCA (sugars k3 d10 k3, PS), 23%.
For “CATCTTAAGATACCCA (sugars k3 d9 k3 e1, PS)”, the target mRNA inhibition worked out at 0% (0.02 µM); 23% (0.078 µM); 38% (0.313 µM); 76% (1 µM); 64% (1.25 µM); 79% (5 µM).
Turning to CATCTTAAGATACCCA (sugars k3 d10 k3, PS), the target mRNA inhibition runs as follows: (0.02 µM) 0%; (0.078 µM) 23%; (0.313 µM) 46%; (1 µM) 76%; (1.25 µM) 75%; (5 µM) 90%.
“CATCUTAAGATACCCA (sugars k3 d1 m1 d8 k3, PS)”: the target mRNA inhibition (1 µM) stood at 56%.
As for CATGATTAAGCAGAAT (sugars k3 d10 k3, PS), the target mRNA inhibition (1 µM) was determined as 42%.
As to CATTACATATCAATGC (sugars k3 d10 k3, PS), for the setting “1 µM”, the target mRNA inhibition amounted to 29%.
For the setting “1 µM”, CATTAGCAAGCTAAGA (sugars k3 d10 k3, PS) came in with a target mRNA inhibition of 0%.
As to CATTATCCTTACTCCC (sugars k3 d10 k3, PS), the target mRNA inhibition (1 µM) was 16%.
As for CATTTGAAGTCTATAC (sugars k3 d10 k3, PS), the target mRNA inhibition (1 µM) came out at 21%.
In turn, CATTTTTAATACGACT (sugars k3 d10 k3, PS) displayed a target mRNA inhibition (1 µM) of 57%.
Still for that read-out and setting: then CCAAACATGGATGTTA (sugars k3 d10 k3, PS), with 43%.

For the origin of these results see the OligoGym collection.
